Results from patent publication US10428080B2, “TBK/IKK inhibitor compounds and uses thereof” (Merck Patent GmbH, priority 2015, dated 2019).
Read-outs that look alike come from different tables or passages of the source.

Legend:
IKKε = target: T1, IKKε (Homo sapiens, UniProt Q14164); experiment: IKKe Biochemical Assay; settings: read-out: IKKε IC50
T1 sequence (Q14164 1-716): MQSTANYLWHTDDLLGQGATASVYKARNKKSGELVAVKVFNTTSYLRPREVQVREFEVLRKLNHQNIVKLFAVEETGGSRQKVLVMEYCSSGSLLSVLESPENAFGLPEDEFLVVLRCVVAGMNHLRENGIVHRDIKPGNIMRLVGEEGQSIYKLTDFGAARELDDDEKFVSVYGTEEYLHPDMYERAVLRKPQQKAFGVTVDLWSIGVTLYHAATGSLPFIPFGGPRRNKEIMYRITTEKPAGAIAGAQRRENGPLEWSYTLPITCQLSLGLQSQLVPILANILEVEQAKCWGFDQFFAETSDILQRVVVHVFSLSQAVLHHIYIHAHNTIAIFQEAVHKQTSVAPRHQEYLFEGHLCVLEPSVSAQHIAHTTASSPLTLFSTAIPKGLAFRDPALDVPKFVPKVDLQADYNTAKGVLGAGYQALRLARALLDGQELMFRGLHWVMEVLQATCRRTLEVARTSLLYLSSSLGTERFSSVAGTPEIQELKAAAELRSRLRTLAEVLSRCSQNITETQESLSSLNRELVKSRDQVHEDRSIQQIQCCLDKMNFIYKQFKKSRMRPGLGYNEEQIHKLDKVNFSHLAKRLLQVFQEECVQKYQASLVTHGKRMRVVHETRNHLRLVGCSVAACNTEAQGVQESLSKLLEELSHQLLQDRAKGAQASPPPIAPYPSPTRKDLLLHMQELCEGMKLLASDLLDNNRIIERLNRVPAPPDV
Procedure, shortened: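 Activity was measured as mobility-shift separation of phosphorylated from unphosphorylated substrate on a LabChip EZ Reader. Compound was titrated from 30 uM final in 10 points, 1:4 steps, with 1% DMSO, and enzyme plus substrate reacted 90 min at 25° C before stop buffer. Control wells held 10 uM staurosporine.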

TBK1 = target: T2, TBK1 (Homo sapiens, UniProt Q9UHD2); experiment: TBK Biochemical Assay; settings: read-out: TBK1 IC50
T2 sequence (Q9UHD2 1-729): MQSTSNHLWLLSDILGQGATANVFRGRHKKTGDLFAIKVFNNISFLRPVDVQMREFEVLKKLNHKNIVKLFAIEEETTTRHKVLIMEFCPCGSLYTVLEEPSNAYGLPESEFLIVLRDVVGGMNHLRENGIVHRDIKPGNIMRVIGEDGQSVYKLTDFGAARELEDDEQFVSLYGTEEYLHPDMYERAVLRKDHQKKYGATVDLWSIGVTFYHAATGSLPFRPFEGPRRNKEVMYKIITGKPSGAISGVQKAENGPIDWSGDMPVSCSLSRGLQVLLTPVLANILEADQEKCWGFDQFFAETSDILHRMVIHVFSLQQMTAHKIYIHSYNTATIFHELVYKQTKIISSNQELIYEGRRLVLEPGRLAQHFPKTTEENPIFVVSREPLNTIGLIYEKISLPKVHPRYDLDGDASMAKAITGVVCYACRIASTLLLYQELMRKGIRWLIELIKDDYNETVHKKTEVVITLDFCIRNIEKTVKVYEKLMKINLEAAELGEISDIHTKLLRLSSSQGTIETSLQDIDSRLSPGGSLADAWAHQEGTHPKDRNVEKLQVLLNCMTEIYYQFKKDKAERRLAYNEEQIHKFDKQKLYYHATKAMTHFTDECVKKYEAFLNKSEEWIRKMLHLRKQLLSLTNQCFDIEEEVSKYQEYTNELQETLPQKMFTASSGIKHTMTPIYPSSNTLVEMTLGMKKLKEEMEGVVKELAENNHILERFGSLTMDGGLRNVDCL
Procedure, shortened: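 Caliper LabChip mobility-shift readout of substrate and product after 90 min of TBK1 reaction at 25° C and stop-buffer addition. Compounds tested in 1:4 serial dilution over 10 points from 30 uM final at 1% DMSO; staurosporine 10 uM final defines full inhibition.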

[1] = system: phosphorylation of the IRF-3 protein in MDA-MB-468 cells; experiment: pIRF3 immunocytochemistry cell based assay; settings: MDA-MB-468 cells, Poly(I:C) stimulation, read-out: pIRF3 IC50
Protocol: The purpose of the pIRF3 immunocytochemistry cell based assay was to identify small molecules which modulates TBK/IKKe kinase activity through on target substrate phosphorylation of the IRF-3 protein. On the first day of the experiment, MDA-MB-468 cells were plated in 384 well, black, clear-bottom, Poly D lysine coated plates at a density of 5000 cells/well in 45 ul of complete DMEM and allowed to adhere overnight. On the second day compounds were added to cells at a starting concentration of 10 uM with a serial dilution of 3-fold for a total of 10 points. The cells were incubated for 1 hr at 37° C. Cells were then stimulated with Poly(I:C) at a final concentration of 10 ug/ml, and were incubated for 2 hr at 37° C. Following the incubation, media was removed from the wells and the cells were fixed with 4% PFA for 15 min at RT. Cells were washed at least 3 times with PBS, and then permeabilized with ice-cold methanol for 10 min at RT. The washing step was repeated and the cells were then blocked using 10% goat serum/1% BSA, made up in PBS and allowed to incubate at RT for 1 hr. The cells were washed again and then treated with an anti-pIRF3 antibody at 4° C. overnight (1:250 dilution of Abcam ab76493 in PBS containing 1% BSA). On the third day the primary antibody was washed off and pIRF3 was detected by adding the secondary antibody conjugated to AlexaFluor488 (1:200 dilution of secondary antibody in PBS containing 1% BSA) for 1 hr at RT. Cells were washed and then counterstained with PI/RNase staining buffer for 15 min at RT and read on the Acumen Explorer laser scanning cytometer. The percentage of phosphorylation of the IRF-3 protein was calculated using the following algorithm, a modified version of the mean half width intensity (pIRF3 staining)/(PI staining or # of cells)×100%). IC50 curves were generated using the Genedata software.

Compound	IC50 (IKKε) [µM]	IC50 (TBK1) [µM]	IC50 ([1]; Homo sapiens) [µM]	IC50 [1] [µM]
COc1cc(C(=O)N[C@H]2C[C@H](CO)N(C)C2)ccc1-c1cc2nccc(-c3ccc(OC4CCOCC4)c(C#N)c3)c2o1 (stereo in doubt) [Compound 350, 4-[7-[3-cyano-4-(oxan-4-yloxy)phenyl]furo[3,2-b]pyridin-2-yl]-N-[(3S,5R)-5-(hydroxymethyl)-1-methylpyrrolidin-3-yl]-3-methoxybenzamide]	< 0.1	< 0.1	0.1 to 1	–
COc1cc(C(=O)N2CC3CC2CO3)ccc1-c1cc2nccc(-c3ccc(OC4CCOCC4)c(C#N)c3)c2o1 (stereo not drawn) [Compound 1, 5-{2-[2-Methoxy-4-(2-oxa-5-aza-bicyclo[2.2.1]heptane-5-carbonyl)-phenyl]-furo[3,2-b]pyridin-7-yl}-2-(tetrahydro-pyran-4-yloxy)-benzonitrile]	< 0.1	< 0.1	< 0.1	–
COc1cc(C(=O)N2CCC3(CCO3)CC2)ccc1-c1cc2nccc(-c3ccc(OC4CCOCC4)c(C#N)c3)c2o1 [Compound 3, 5-{2-[2-Methoxy-4-(1-oxa-7-aza-spiro[3.5]nonane-7-carbonyl)-phenyl]-furo[3,2-b]pyridin-7-yl}-2-(tetrahydro-pyran-4-yloxy)-benzonitrile]	< 0.1	< 0.1	0.1 to 1	–
COc1cc(C(=O)N2CCC(CO)CC2)ccc1-c1cc2nccc(-c3ccc(OC4CCOCC4)c(C#N)c3)c2o1 [Compound 5, 5-{2-[4-(4-Hydroxymethyl-piperidine-1-carbonyl)-2-methoxy-phenyl]-furo[3,2-b]pyridin-7-yl}-2-(tetrahydro-pyran-4-yloxy)-benzonitrile]	< 0.1	< 0.1	< 0.1	–
COc1cc(C(=O)N2CC(N3CCOCC3)C2)ccc1-c1cc2nccc(-c3ccc(OC4CCOCC4)c(C#N)c3)c2o1 [Compound 8]	< 0.1	< 0.1	< 0.1	–
COc1cc(C(=O)N2CCCCC2CO)ccc1-c1cc2nccc(-c3ccc(OC4CCOCC4)c(C#N)c3)c2o1 (stereo not drawn) [Compound 10]	< 0.1	< 0.1	< 0.1	–
COc1cc(C(=O)NC2CCOCC2O)ccc1-c1cc2nccc(-c3ccc(OC4CCOCC4)c(C#N)c3)c2o1 (stereo not drawn) [Compound 11, 4-{7-[3-Cyano-4-(tetrahydro-pyran-4-yloxy)-phenyl]-furo[3,2-b]pyridin-2-yl}-N-(3-hydroxy-tetrahydro-pyran-4-yl)-3-methoxy-benzamide]	< 0.1	< 0.1	0.1 to 1	–
COc1cc(C(=O)N2CCN(CCO)CC2)ccc1-c1cc2nccc(-c3ccc(OC4CCOCC4)c(C#N)c3)c2o1 [Compound 13, 5-(2-{4-[4-(2-Hydroxy-ethyl)-piperazine-1-carbonyl]-2-methoxy-phenyl}-furo[3,2-b]pyridin-7-yl)-2-(tetrahydro-pyran-4-yloxy)-benzonitrile]	< 0.1	< 0.1	< 0.1	–

Now from value to compound:

IC50 (IKKε) [µM]	IC50 (TBK1) [µM]	IC50 ([1]; Homo sapiens) [µM]	IC50 [1] [µM]	Compound
< 0.1	< 0.1	< 0.1	–	COc1cc(C(=O)N2CCCCC2)ncc1-c1cc2nccc(-c3ccc(N4CCC(F)C4)c(C#N)c3)c2o1 (stereo in doubt) [Compound 384, 2-((S)-3-Fluoro-pyrrolidin-1-yl)-5-{2-[4-methoxy-6-(piperidine-1-carbonyl)-pyridin-3-yl]-furo[3,2-b]pyridin-7-yl}-benzonitrile]
< 0.1	< 0.1	–	< 0.1	COc1cc(C(=O)N2CCCCC2)ncc1-c1cc2nccc(-c3ccc(N4CC[C@@H](F)C4)c(C#N)c3)c2o1 (stereo in doubt) [Compound 385]
< 0.1	< 0.1	0.1 to 1	–	COc1cc(C(=O)N(C)C)ncc1-c1cc2nccc(-c3ccc(N4CCC(F)C4)c(C#N)c3)c2o1 (stereo in doubt) [Compound 389, 5-{7-[3-Cyano-4-((S)-3-fluoro-pyrrolidin-1-yl)-phenyl]-furo[3,2-b]pyridin-2-yl}-4-methoxy-pyridine-2-carboxylic acid dimethylamide]
< 0.1	< 0.1	0.1 to 1	–	COc1cc(C(=O)N(C)C)ncc1-c1cc2nccc(-c3ccc(N4CCC(F)C4)c(C#N)c3)c2o1 (stereo in doubt) [Compound 390, 5-{7-[3-Cyano-4-((R)-3-fluoro-pyrrolidin-1-yl)-phenyl]-fluro[3,2-b]pyridin-2-yl}-4-methoxy-pyridine-2-carboxylic acid dimethylamide]
< 0.1	< 0.1	0.1 to 1	–	COc1cc(C(=O)NC2C3COCC32)cnc1-c1cc2nccc(-c3ccc(N4CC[C@H](F)C4)c(C#N)c3)c2o1 (stereo in doubt) [Compound 465, 6-[7-[3-cyano-4-(3-fluoropyrrolidin-1-yl)phenyl]furo[3,2-b]pyridin-2-yl]-5-methoxy-N-[3-oxabicyclo[3.1.0]hexan-6-yl]pyridine-3-carboxamide]
< 0.1	< 0.1	< 0.1	–	COc1cc(C(=O)N2C[C@H]3C[C@@H]2CN3C)ccc1-c1cc2nccc(-c3ccc(OC4CCOCC4)c(C#N)c3)c2o1 (stereo in doubt) [Compound 507]
< 0.1	< 0.1	0.1 to 1	–	COc1cc(C(=O)N(C)C)ccc1-c1cc2nccc(-c3ccc(NC4CCOC4)c(C#N)c3)c2o1 (stereo not drawn) [Compound 7]
< 0.1	< 0.1	< 0.1	–	COc1cc(C(=O)N2CC3CN(C)CC3C2)ccc1-c1cc2nccc(-c3ccc(OC4CCOCC4)c(C#N)c3)c2o1 (stereo not drawn) [Compound 9, 5-{2-[2-Methoxy-4-(5-methyl-hexahydro-pyrrolo[3,4-c]pyrrole-2-carbonyl)-phenyl]-furo[3,2-b]pyridin-7-yl}-2-(tetrahydro-pyran-4-yloxy)-benzonitrile]
< 0.1	< 0.1	< 0.1	–	COc1cc(C(=O)N2CC[C@H](O)C2)ccc1-c1cc2nccc(-c3ccc(OC4CCOCC4)c(C#N)c3)c2o1 [Compound 14, 5-{2-[4-((S)-3-Hydroxy-pyrrolidine-1-carbonyl)-2-methoxy-phenyl]-furo[3,2-b]pyridin-7-yl}-2-(tetrahydro-pyran-4-yloxy)-benzonitrile]
